Assays:
EGFR WT = EGFR WT (Homo sapiens, UniProt P00533); assay: HotSpot radiometric kinase assay, inhibition of EGFR WT; format: biochemical; settings: 33P ATP, room temperature, 120 m
Procedure: (§1) Biochemical Assays for inhibition of wild-type and mutant EGFRs
(§2) Briefly, specific kinase/substrate pairs along with required cofactors were prepared in reaction buffer; 20 mM HEPES pH 7.5, 10 mM […], 1 mM EGTA, 0.02% Brij35, 0.02 mg/ml BSA, 0.1 mM Na3VO4, 2 mM DTT, 1% DMSO. Compounds were delivered into the reaction, followed ~20 minutes later by addition of a mixture of ATP (Sigma, St. Louis MO) and ^33P ATP (Perkin Elmer, Waltham MA) to a final concentration of […]. Reactions were carried out at room temperature for 120 m, followed by spotting of the reactions onto P81 ion exchange filter paper (Whatman Inc., Piscataway, NJ). Unbound phosphate was removed by extensive washing of filters in 0.75% phosphoric acid. […] IC50 values and curve fits were obtained using Prism (GraphPad Software).

HCC827 cells = assay: 5-Day CellTiter Glo (CTG) cell proliferation assay, HCC827; format: cell-based; settings: Homo sapiens; HCC827 cells (d746-750 EGFR), 5-day CTG proliferation, 120 hours; read-out: HCC827 IC50
Summary of the method: (§3)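 Proliferation of EGFR-driven NSCLC cells was scored as CellTiter-Glo 2.0 luminescence after a 5-day (120 h) incubation with compounds in 9 doses. IC50 values came from the dose-response curves.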

EGFR (L858R/T790M) = EGFR (L858R/T790M) (Homo sapiens, UniProt P00533, L858R/T790M); assay: HotSpot radiometric kinase assay, inhibition of EGFR L858R/T790M mutant; format: biochemical; settings: 33P ATP, room temperature, 120 m
Procedure: as §1, §2

[1] = biological target: T1, pEGFR, A431 cells (wildtype EGFR) (Homo sapiens, UniProt P00533); assay: Cellular EGFR phosphorylation assay (LANCE Ultra TR-FRET) in A431 cells; format: cell-based; settings: 4 hours at 37° C., 40 ng/mL EGF for the final 10 minutes, read-out: A431 pEGFR IC50
T1 construct: pEGFR (Tyr1068) TR-FRET
T1 sequence (P00533 25-1210): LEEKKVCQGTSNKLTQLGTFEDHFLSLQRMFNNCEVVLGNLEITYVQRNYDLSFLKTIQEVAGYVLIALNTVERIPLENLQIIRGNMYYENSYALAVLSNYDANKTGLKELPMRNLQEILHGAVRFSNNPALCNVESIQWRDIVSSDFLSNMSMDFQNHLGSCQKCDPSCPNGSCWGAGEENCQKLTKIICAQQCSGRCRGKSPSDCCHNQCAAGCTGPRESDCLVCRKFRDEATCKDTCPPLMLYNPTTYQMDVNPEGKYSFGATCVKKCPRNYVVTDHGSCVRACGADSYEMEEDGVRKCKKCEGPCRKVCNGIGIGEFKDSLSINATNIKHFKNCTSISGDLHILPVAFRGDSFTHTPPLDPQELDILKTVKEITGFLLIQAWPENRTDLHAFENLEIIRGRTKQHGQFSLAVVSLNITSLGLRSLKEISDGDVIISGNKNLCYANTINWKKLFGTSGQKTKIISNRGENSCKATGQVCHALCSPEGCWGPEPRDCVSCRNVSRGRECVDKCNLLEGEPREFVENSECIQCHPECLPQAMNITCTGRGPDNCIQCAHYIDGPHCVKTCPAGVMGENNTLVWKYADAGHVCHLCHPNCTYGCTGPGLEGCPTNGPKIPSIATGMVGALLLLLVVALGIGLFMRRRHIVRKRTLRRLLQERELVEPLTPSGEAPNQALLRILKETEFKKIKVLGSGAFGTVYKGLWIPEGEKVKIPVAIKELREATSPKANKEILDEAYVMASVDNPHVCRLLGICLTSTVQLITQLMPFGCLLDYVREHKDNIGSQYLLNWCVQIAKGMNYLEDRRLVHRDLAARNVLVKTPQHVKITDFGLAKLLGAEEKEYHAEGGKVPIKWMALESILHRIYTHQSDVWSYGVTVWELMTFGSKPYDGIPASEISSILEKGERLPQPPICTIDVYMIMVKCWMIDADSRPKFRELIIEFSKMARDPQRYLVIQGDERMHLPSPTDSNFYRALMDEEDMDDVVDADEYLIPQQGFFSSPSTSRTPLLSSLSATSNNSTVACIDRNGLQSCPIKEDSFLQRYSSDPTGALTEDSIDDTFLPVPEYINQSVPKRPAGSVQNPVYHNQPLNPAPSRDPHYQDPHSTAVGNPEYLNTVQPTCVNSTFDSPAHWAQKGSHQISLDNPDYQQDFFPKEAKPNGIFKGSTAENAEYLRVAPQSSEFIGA
Summary of the method: (§4)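 4 h compound treatment at 37 °C, 9-point 3-fold titration. EGF (40 ng/mL, final 10 min) in A431 only. Tyr1068 phosphorylation measured by TR-FRET and IC50 fitted.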

[2] = biological target: T2, pEGFR, NCI-H1975 cells (L858R/T790M EGFR) (Homo sapiens, UniProt P00533, L858R/T790M); assay: Cellular EGFR phosphorylation assay (LANCE Ultra TR-FRET) in NCI-H1975 cells; format: cell-based; settings: 4 hours at 37° C., read-out: H1975 pEGFR IC50
T2 construct: pEGFR (Tyr1068) TR-FRET
Summary of the method: as §4

EGFR (D746-750/C797S) = EGFR (D746-750/C797S) (Homo sapiens, UniProt P00533, C797S/DEL746-750); assay: HotSpot radiometric kinase assay, inhibition of EGFR 746-750/C797S mutant; format: biochemical; settings: 33P ATP, room temperature, 120 m
Chain of EGFR (D746-750/C797S) (P00533 with tags, fused parts or gaps DEL746-750/C797S): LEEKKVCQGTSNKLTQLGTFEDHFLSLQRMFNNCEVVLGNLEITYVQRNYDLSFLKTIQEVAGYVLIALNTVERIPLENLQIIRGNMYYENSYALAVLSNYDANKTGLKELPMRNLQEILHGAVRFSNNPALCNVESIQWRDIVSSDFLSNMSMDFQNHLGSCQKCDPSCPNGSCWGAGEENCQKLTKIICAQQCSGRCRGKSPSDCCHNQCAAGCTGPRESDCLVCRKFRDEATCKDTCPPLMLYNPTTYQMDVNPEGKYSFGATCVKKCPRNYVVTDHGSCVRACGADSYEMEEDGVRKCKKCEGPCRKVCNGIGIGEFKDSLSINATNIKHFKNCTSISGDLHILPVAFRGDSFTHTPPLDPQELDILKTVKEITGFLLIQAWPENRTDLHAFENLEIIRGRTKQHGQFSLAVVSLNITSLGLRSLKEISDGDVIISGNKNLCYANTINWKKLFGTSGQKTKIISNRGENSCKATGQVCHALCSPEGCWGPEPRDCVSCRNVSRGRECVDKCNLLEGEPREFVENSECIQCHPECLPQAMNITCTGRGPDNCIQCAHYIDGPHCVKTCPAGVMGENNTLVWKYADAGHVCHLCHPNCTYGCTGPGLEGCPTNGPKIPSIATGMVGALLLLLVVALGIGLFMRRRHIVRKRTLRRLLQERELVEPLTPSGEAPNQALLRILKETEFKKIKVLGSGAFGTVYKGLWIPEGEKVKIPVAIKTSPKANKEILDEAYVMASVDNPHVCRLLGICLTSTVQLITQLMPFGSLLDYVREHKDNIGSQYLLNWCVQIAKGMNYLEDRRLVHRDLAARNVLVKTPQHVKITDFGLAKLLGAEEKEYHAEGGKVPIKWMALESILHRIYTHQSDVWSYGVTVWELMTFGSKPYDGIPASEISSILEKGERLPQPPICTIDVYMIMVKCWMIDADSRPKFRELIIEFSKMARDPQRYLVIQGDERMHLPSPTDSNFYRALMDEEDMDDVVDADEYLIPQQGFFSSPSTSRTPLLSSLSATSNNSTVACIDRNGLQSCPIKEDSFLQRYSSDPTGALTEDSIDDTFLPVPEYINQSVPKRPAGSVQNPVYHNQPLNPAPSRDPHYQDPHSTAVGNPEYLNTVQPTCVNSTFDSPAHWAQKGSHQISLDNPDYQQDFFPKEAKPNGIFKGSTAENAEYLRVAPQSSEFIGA
Summary of the method: (§5)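 Radiometric filter-binding format: ATP plus 33P-ATP ([…]) was added about 20 min after compound to kinase and substrate in HEPES pH 7.5 buffer with Mg2+, EGTA, Brij35, BSA, vanadate, DTT and 1% DMSO. After 120 min at room temperature, reactions were spotted on P81 paper and washed in phosphoric acid; IC50 values fitted.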

EGFR (L858R) = EGFR (L858R) (Homo sapiens, UniProt P00533, L858R); assay: HotSpot radiometric kinase assay, inhibition of EGFR L858R mutant; format: biochemical; settings: 33P ATP, room temperature, 120 m
Procedure: as §1, §2

[3] = biological target: T3, pEGFR, PC-9 cells (d746-750 EGFR) (Homo sapiens, UniProt P00533, DEL746-750); assay: Cellular EGFR phosphorylation assay (LANCE Ultra TR-FRET) in PC-9 cells; format: cell-based; settings: 4 hours at 37° C., read-out: PC-9 pEGFR IC50
T3 construct: pEGFR (Tyr1068) TR-FRET
T3 sequence (P00533 with tags, fused parts or gaps DEL746-750): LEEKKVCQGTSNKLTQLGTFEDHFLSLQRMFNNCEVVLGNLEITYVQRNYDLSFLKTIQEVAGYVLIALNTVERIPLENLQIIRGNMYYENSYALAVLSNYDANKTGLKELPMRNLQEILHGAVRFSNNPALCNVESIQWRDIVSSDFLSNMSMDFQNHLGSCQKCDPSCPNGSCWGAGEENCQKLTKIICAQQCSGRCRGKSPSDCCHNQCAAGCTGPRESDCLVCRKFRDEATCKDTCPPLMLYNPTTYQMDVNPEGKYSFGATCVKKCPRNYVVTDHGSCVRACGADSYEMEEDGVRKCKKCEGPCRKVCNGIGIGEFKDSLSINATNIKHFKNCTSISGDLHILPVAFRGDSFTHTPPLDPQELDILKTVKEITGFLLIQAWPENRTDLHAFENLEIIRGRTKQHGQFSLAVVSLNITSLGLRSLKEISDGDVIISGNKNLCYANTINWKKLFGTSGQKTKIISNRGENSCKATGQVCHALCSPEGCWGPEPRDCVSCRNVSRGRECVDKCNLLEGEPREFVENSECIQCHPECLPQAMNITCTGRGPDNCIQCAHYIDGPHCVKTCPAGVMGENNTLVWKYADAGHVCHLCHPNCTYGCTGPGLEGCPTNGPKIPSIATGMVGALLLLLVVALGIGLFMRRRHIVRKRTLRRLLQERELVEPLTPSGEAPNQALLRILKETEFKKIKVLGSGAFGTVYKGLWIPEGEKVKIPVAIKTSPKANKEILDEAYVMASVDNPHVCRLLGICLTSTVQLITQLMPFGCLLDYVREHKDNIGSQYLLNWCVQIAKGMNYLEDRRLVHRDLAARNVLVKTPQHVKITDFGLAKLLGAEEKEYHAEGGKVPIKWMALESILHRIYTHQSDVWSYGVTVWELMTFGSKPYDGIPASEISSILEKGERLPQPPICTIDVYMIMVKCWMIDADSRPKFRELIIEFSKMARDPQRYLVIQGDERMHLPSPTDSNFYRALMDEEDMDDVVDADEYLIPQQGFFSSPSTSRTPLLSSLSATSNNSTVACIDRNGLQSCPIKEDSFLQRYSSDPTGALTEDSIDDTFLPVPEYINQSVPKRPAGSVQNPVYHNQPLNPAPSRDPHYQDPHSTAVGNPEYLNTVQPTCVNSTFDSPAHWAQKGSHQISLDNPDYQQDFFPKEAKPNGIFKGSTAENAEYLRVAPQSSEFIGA
Summary of the method: as §4

EGFR (L858R/T790M/C797S) = EGFR (L858R/T790M/C797S) (Homo sapiens, UniProt P00533, C797S/L858R/T790M); assay: HotSpot radiometric kinase assay, inhibition of EGFR L858R/T790M/C797S mutant; format: biochemical; settings: 33P ATP, room temperature, 120 m
Summary of the method: as §5

[4] = system: BaF3 cells with engineered EGFR L858R/T790M/C797S; assay: 3-Day CellTiter Glo (CTG) cell proliferation assay, BaF3 EGFR L858R/T790M/C797S; format: cell-based; settings: Mus musculus, 3-day CTG proliferation, 72 hours
Summary of the method: (§6)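 Growth inhibition in transgene-bearing BaF3 lines was scored after three days of compound treatment by CellTiter-Glo 2.0 ATP luminescence, yielding IC50 values.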

[5] = system: BaF3 cells with engineered EGFR L858R/C797S; assay: 3-Day CellTiter Glo (CTG) cell proliferation assay, BaF3 EGFR L858R/C797S; format: cell-based; settings: Mus musculus, 3-day CTG proliferation, 72 hours
Summary of the method: as §6

NCI-H1975 cells = assay: 5-Day CellTiter Glo (CTG) cell proliferation assay, NCI-H1975; format: cell-based; settings: Homo sapiens; NCI-H1975 cells (L858R/T790M EGFR), 5-day CTG proliferation, 120 hours; read-out: H1975 IC50
Summary of the method: as §3

EGFR (D770_N771insNPG) = EGFR (D770_N771insNPG) (Homo sapiens, UniProt P00533, INS770NPG); assay: HotSpot radiometric kinase assay, inhibition of EGFR (D770_N771insNPG) mutant; format: biochemical; settings: 33P ATP, room temperature, 120 m
Summary of the method: as §5

PC-9 cells = assay: 5-Day CellTiter Glo (CTG) cell proliferation assay, PC-9; format: cell-based; settings: Homo sapiens; PC-9 cells (d746-750 EGFR), 5-day CTG proliferation, 120 hours; read-out: PC-9 IC50
Summary of the method: as §3

EGFR (D746-750) = EGFR (D746-750) (Homo sapiens, UniProt P00533, DEL746-750); assay: HotSpot radiometric kinase assay, inhibition of EGFR 746-750 mutant; format: biochemical; settings: 33P ATP, room temperature, 120 m
Chain of EGFR (D746-750) (P00533 with tags, fused parts or gaps DEL746-750): as above
Summary of the method: as §5

[6] = system: BaF3 cells with engineered EGFR d746-750/T790M; assay: 3-Day CellTiter Glo (CTG) cell proliferation assay, BaF3 EGFR d746-750/T790M; format: cell-based; settings: Mus musculus; BaF3 EGFR d746-750/T790M cells, 3-day CTG proliferation, 72 hours
Summary of the method: as §6

IC50 (EGFR WT) [pM]	IC50 (HCC827 cells) [pM]	IC50 (EGFR (L858R/T790M)) [pM]	IC50 [1] [pM]	IC50 [2] [pM]	IC50 (EGFR (D746-750/C797S)) [pM]	IC50 (EGFR (L858R)) [pM]	IC50 [3] [pM]	IC50 (EGFR (L858R/T790M/C797S)) [pM]	IC50 [4] [pM]	IC50 [5] [pM]	IC50 (NCI-H1975 cells) [pM]	IC50 (EGFR (D770_N771insNPG)) [pM]	IC50 (PC-9 cells) [pM]	IC50 (EGFR (D746-750)) [pM]	IC50 [6] [pM]	SMILES
100	250	440	16100	5250	310	380	2860	430	830	160	3140	230	3650	520	–	CCOc1nn(CCO)c2c1/C=C/c1n[nH]c3cnc(cc13)-c1cnn(C)c1O[C@@H](C)CN(C(C)C)C2 [Ex. 11, 2-[(10S,17E)-16-ethoxy-8,10-dimethyl-12-(propan-2-yl)-2,8,10,11,12,13-hexahydro-14H-5,3-(azenometheno)tripyrazolo[3,4-f:3′,4′-j:4″,3″-n][1,4]oxazacyclopentadecin-14-yl]ethan-1-ol]
150	280	370	10000	2850	600	200	2540	1780	790	160	1510	190	2740	140	–	CCOc1nn([C@@H](C)CO)c2c1/C=C/c1n[nH]c3cnc(cc13)-c1cnn(C)c1O[C@@H](C)CN(C)C2 [Ex. 19, (2S)-2-[(10S,17E)-16-ethoxy-8,10,12-trimethyl-2,8,10,11,12,13-hexahydro-14H-5,3-(azenometheno)tripyrazolo[3,4-f:3′,4′-j:4″,3″-n][1,4]oxazacyclopentadecin-14-yl]propan-1-ol]
710	2890	810	61000	8570	980	550	11800	2570	5290	3050	96000	1480	25200	270	–	Cc1nn(CCO)c2c1/C=C/c1n[nH]c3cnc(cc13)-c1c(C)nn(C)c1O[C@H](C)CN(C(C)C)C2 [Ex. 20, 2-[(10R,17E)-6,8,10,16-tetramethyl-12-(propan-2-yl)-2,8,10,11,12,13-hexahydro-14H-5,3-(azenometheno)tripyrazolo[3,4-f:3′,4′-j:4″,3″-n][1,4]oxazacyclopentadecin-14-yl]ethan-1-ol]
180	390	450	19800	4190	330	450	3480	490	930	190	3220	290	12100	670	–	CCN1Cc2c(c(OC(C)C)nn2CCO)/C=C/c2n[nH]c3cnc(cc23)-c2cnn(C)c2O[C@@H](C)C1 [Ex. 9, 2-[(10S,17E)-12-ethyl-8,10-dimethyl-16-[(propan-2-yl)oxy]-2,8,10,11,12,13-hexahydro-14H-5,3-(azenometheno)tripyrazolo[3,4-f:3′,4′-j:4″,3″-n][1,4]oxazacyclopentadecin-14-yl]ethan-1-ol]
130	1980	150	42700	10900	490	160	6850	120	–	–	28000	70	27600	90	–	CCOc1nn(CCO)c2c1/C=C/c1n[nH]c3cnc(cc13)-c1cnn(C)c1O[C@H](C)CN(CC)C2 [Ex. 6, 2-[(10R,17E)-16-ethoxy-12-ethyl-8,10-dimethyl-2,8,10,11,12,13-hexahydro-14H-5,3-(azenometheno)tripyrazolo[3,4-f:3′,4′-j:4″,3″-n][1,4]oxazacyclopentadecin-14-yl]ethan-1-ol]
350	–	460	51900	4820	270	460	10800	510	1890	–	–	400	–	640	690	CCN1Cc2c(c(OC(C)C)nn2CCO)/C=C/c2n[nH]c3cnc(cc23)-c2cnn(C)c2O[C@H](C)C1 [Ex. 10, 2-[(10R,17E)-12-ethyl-8,10-dimethyl-16-[(propan-2-yl)oxy]-2,8,10,11,12,13-hexahydro-14H-5,3-(azenometheno)tripyrazolo[3,4-f:3′,4′-j:4″,3″-n][1,4]oxazacyclopentadecin-14-yl]ethan-1-ol]
160	260	500	15800	2320	830	290	1690	2140	900	140	5720	200	630	170	–	Cc1nn(CCO)c2c1/C=C/c1n[nH]c3cnc(cc13)-c1c(C)nn(C)c1O[C@@H](C)CN(C(C)C)C2 [Ex. 21, 2-[(10S,17E)-6,8,10,16-tetramethyl-12-(propan-2-yl)-2,8,10,11,12,13-hexahydro-14H-5,3-(azenometheno)tripyrazolo[3,4-f:3′,4′-j:4″,3″-n][1,4]oxazacyclopentadecin-14-yl]ethan-1-ol]
390	2250	430	40700	3640	310	620	6380	440	1360	780	22200	420	13800	580	–	CCOc1nn(CCO)c2c1/C=C/c1n[nH]c3cnc(cc13)-c1cnn(C)c1O[C@H](C)CN(C(C)C)C2 [Ex. 12, 2-[(10R,17E)-16-ethoxy-8,10-dimethyl-12-(propan-2-yl)-2,8,10,11,12,13-hexahydro-14H-5,3-(azenometheno)tripyrazolo[3,4-f:3′,4′-j:4″,3″-n][1,4]oxazacyclopentadecin-14-yl]ethan-1-ol]
